Results published in US6440978B2, “Therapeutic agent for dermatitis” (Nippon Zoki Pharmaceutical Co., Ltd., priority 2000, dated 2002).

What was measured:
[1] = tested on: antigen-induced swelling reaction in a mouse ear; experiment: Suppressive action against antigen-induced swelling reaction in a mouse ear; assay type: in vivo, BALB/c female mice
Experimental: (§1) Seven week old BALB/c female (SPF) mice of were selected as subjects. According to a method of Tanaka, et al. (Allergy, 46, pages 42-48(1997)), egg white albumin (final concentration: 2 μg/mL) and aluminum hydroxide gel (final concentration: 10 mg/mL) were suspended in physiological saline and 0.5 mL of the suspension was administered to effect intraperitoneal sensitization on the first day of the test. On the 14th day of the test, an additional sensitization was carried out under the same conditions. Further, on the 28th day of the test, 25 μL of egg albumin (a 20 μg/mL solution in physiological saline) was intradermally administered to the right ear of a mouse to induce a swelling reaction.
(§2) This swelling reaction reached its peak at 4 hours after the challenge by the antigen. Even after 24 to 48 hours, a significant swelling reaction was noted as compared with the control in which antigen was merely challenged (not sensitized). […] On the contrary, the swelling from 24 to 48 hours after the challenge is thought to be the so-called delayed-type swelling reaction accompanied by infiltration of eosinophils, neutrophils and lymphocytes. In addition, a flare-up reaction having a peak at 24 hours after the challenge appeared on the ear of the antigen-induced site. Like swelling, flare-up is an important symptom of inflammation. Although the mechanism of the flare-up reaction is ambiguous, it may be a flare-up reaction of a delayed type in view of the time course of its expression. As such, this model animal in which the inflammation of both immediate and delayed types are induced is appropriate as a model animal for atopic dermatitis. In the following experiment, the effectiveness of the therapeutic agent for dermatitis according to the present invention was tested using the said model animal.
Each of a vehicle (control) and a test agent (containing the compound of the present invention or a positive control) was applied to the antigen-induced site (right auricle) of a mouse. A swelling reaction was induced in accordance with Example 2 at 2 hours before and 4 hours after the challenge. After the challenge, the thickness of the swelling induced ear was measured by a Dial Thickness Gauge (manufactured by Ozaki Seisakusho). The intensity of the reaction was expressed in terms of an increase in the auricle thickness by deducting the thickness (early value) measured before the challenge from the thickness of the swelling induced ear. The suppression rate of the test drug for ear swelling was calculated by the following formula:
Suppression Rate (%)=100 ×[(Ear Thickness Increase of Vehicle-Only-Control)—(Ear Thickness Increase of the Test Group)]/[(Ear Thickness Increase of the Vehicle-Only-Control)—(Ear Thickness Increase of the Challenge-Only-Group)]

[2] = tested on: antigen-induced flare-up reaction in a mouse; experiment: Suppressive action against antigen-induced flare-up reaction in a mouse; assay type: in vivo, BALB/c female mice; settings: 0.12% ointment
Experimental: as §1, §2
Each of a vehicle (control) and an agent for the test (the therapeutic agent for dermatitis according to the present invention or a positive control) was applied to the antigen-induced site (right auricle) of a mouse to induce a swelling reaction in accordance with Example 2 at 2 hours before and 4 hours after the challenge. The right ear was observed by naked eye and the degree of flare-up was scored according to the following standard:
1: in such a degree that a flare-up was confirmed, the color is clear red or pale red and the size was small
2: between score 3 and score 1
3: color of the flare-up was clearly red and the size of the flare-up was big

ear of a normal mouse = experiment: Influence of repeated application on the ear thickness of a normal mouse; assay type: in vivo
Experimental: The therapeutic agent for dermatitis according to the present invention or the positive control (steroid preparation) was applied twice daily to the right ear of a normal mouse for a total of nine times and, 2 hours after the final application, the thickness of the ear was measured.

[3] = Table 2, 1% ointment, 24 hr after challenge
[4] = Table 2, 3% ointment, 24 hr after challenge
[5] = Table 1, 0.12% ointment, 1 hr after challenge
[6] = Table 1, 0.12% ointment, 8 hr after challenge
[7] = Table 1, 0.12% ointment, 24 hr after challenge
[8] = Table 1, 0.12% ointment, 48 hr after challenge
[9] = Table 2, 0.12% ointment, 24 hr after challenge

`Nc1ccc2c(=O)n(Cc3ccccc3Cl)c(=O)n(-c3ccccc3)c2n1` [Compound 2, 7-amino-3-(2-chlorobenzyl)-1,2,3,4-tetrahydro-1-phenylpyrido[2,3-d]pyrimidin-2,4-dione] was tested, and the “Ear Thickness Increase at 4 hr after Challenge” value ([1]; Table 2, 1% ointment) was 19.5 ± 3.2 × 0.01 mm, the “Suppression Rate of ear thickness increase at 4 hr after Challenge” value ([1]; Table 2, 1% ointment) was “(22.2%)” and the “Ear Thickess Increase at 24 hr after Challenge” value (“Ear Thickess Increase at 24 hr” below) [1, 3] was 11.8 ± 2.6 × 0.01 mm. For the same molecule, the “Suppression Rate of ear thickness increase at 24 hr after Challenge” value [1, 3] was “(30.3%)”, the “Ear Thickness Increase at 4 hr after Challenge” value ([1]; Table 2, 3% ointment) was 19.3 ± 2.4 × 0.01 mm and the “Suppression Rate of ear thickness increase at 4 hr after Challenge” value ([1]; Table 2, 3% ointment) was “(23.1%)”. For the same molecule, the “Ear Thickess Increase at 24 hr” value [1, 4] was 8.0 ± 1.4 × 0.01 mm and the “Suppression Rate of ear thickness increase at 24 hr after Challenge” value [1, 4] was “(54.8%)”.
With `CCCCC(=O)O[C@]1(C(=O)CO)[C@@H](C)C[C@H]2[C@@H]3CCC4=CC(=O)C=C[C@]4(C)[C@@]3(F)[C@@H](O)C[C@@]21C` [Positive Control, betamethasone valerate, reference compound] the “Ear Thickness Increase at 1 hr after Challenge” value [1, 5] was 8.3 ± 0.7 × 0.01 mm, the “Suppression Rate of ear thickness increase at 1 hr after Challenge” value [1, 5] was “(45.5%)” and the “Ear Thickness Increase at 4 hr after Challenge” value ([1]; Table 1, 0.12% ointment) was 16.3 ± 2.0 × 0.01 mm. For the same molecule, the “Suppression Rate of ear thickness increase at 4 hr after Challenge” value ([1]; Table 1, 0.12% ointment) was “(42.0%)”, the “Ear Thickness Increase at 8 hr after Challenge” value [1, 6] was 2.0 ± 1.2 × 0.01 mm and the “Suppression Rate of ear thickness increase at 8 hr after Challenge” value [1, 6] was “(49.7%)”. The “Ear Thickness Increase at 24 hr after Challenge” value [1, 7] was 5.0 ± 1.0 × 0.01 mm, the “Suppression Rate of ear thickness increase at 24 hr after Challenge” value [1, 7] was “(80.0%)” and the “Ear Thickness Increase at 48 hr after Challenge” value [1, 8] was 2.0 ± 1.0 × 0.01 mm. For the same molecule, the “Suppression Rate of ear thickness increase at 48 hr after Challenge” value [1, 8] was “(100.0%)”, the “Ear Thickness Increase at 4 hr after Challenge” value ([1]; Table 2, 0.12% ointment) was 11.0 ± 0.6 × 0.01 mm and the “Suppression Rate of ear thickness increase at 4 hr after Challenge” value ([1]; Table 2, 0.12% ointment) was “(60.0%)”. For the same molecule, the “Ear Thickess Increase at 24 hr” value [1, 9] was 6.3 ± 2.4 × 0.01 mm, the “Suppression Rate of ear thickness increase at 24 hr after Challenge” value [1, 9] was “(65.8%)” and the “Suppression Rate of flare-up score at 4 hr after Challenge” value ([2]; 4 hr after challenge) was “(25.0%)”. For the same molecule, the “Flare-up Score at 4 hr after Challenge” value ([2]; 4 hr after challenge, score 0-3) was 0.6 ± 0, the “Suppression Rate of flare-up score at 24 hr after Challenge” value ([2]; 24 hr after challenge) was “(40.0%)” and the “Flare-up Score at 24 hr after Challenge” value ([2]; 24 hr after challenge, score 0-3) was 1.5 ± 0.2. The “Ear Thickness” value (ear of a normal mouse; 0.12% ointment applied twice daily, nine times in total, 2 hours after final application) was 18.3 ± 0.5 × 0.01 mm and the “influence of repeated application on auricle thickness” value (ear of a normal mouse; positive control ointment, repeated application) was “significantly reduced the auricle thickness”.
